The text below walks through data of PMC12396409, “Screening and hit evaluation of a microbial metabolite library against the pathogenic Plasmodium falciparum and Toxoplasma gondii parasites” (International Journal for Parasitology: Drugs and Drug …, 2025).

The test system of assay [1] is T. gondii RH strain (RH-Tub-eYFP) tachyzoites. In words: microbe, parasite or virus in culture. Format: cell-based, Toxoplasma gondii. Conditions: 72 h; for percent parasite growth at 2 µg/mL: Toxoplasma gondii.
Assay [2] deals with P. falciparum 3D7 parasites. In words: P. falciparum growth inhibition assay, 2-cycle (120 h treatment), delayed-death screen and dose-response. Conditions: for activity at 2 µg/mL: Plasmodium falciparum. Format: cell-based, Plasmodium falciparum.
In assay [3] the test system is P. falciparum 3D7 parasites. Put plainly: P. falciparum growth inhibition assay, 1-cycle (72 h treatment), SYBR DNA staining (library screen at 2 μg/mL and dose-response). Format: cell-based, Plasmodium falciparum. Conditions: for activity at 2 µg/mL: Plasmodium falciparum.
Setting [4] is: T. gondii, screen at 2 μg/mL, replicate 1.
Setting [5] is: T. gondii, screen at 2 μg/mL, replicate 2.
Where [6] appears, read: P. falciparum, 120 h, screen at 2 μg/mL, replicate 1.
The mark [7] stands for this setting: P. falciparum, 120 h, screen at 2 μg/mL, replicate 2.
Setting [8] is: P. falciparum, 72 h, screen at 2 μg/mL, replicate 1.
Where [9] appears, read: P. falciparum, 72 h, screen at 2 μg/mL, replicate 2.
Setting [10] is: library screen at 2 μg/mL, % growth, replicate 1, read-out: Tg_72h_%Growth_Rep1.
Setting [11] is: library screen at 2 μg/mL, % growth, replicate 2, read-out: Tg_72h_%Growth_Rep2.
Where [12] appears, read: 3D7, library screen at 2 μg/mL, 120 h, % growth, replicate 1, read-out: Pf_120h_%Growth_Rep1.
Where [13] appears, read: 3D7, library screen at 2 μg/mL, 120 h, % growth, replicate 2, read-out: Pf_120h_%Growth_Rep2.
Where [14] appears, read: 3D7, library screen at 2 μg/mL, 72 h, % growth, replicate 1, read-out: Pf_72h_%Growth_Rep1.
Setting [15] is: 3D7, library screen at 2 μg/mL, 72 h, % growth, replicate 2, read-out: Pf_72h_%Growth_Rep2.

Like-named read-outs stand apart in the source and are kept apart here.

`CC(=O)O[C@H]1CC[C@]2(C)[C@H]3CC[C@]4(C)Oc5oc(C)cc(=O)c5C[C@H]4[C@]3(C)CC[C@H]2C1(C)C` [Chevalone C] registered a Tg_72h_%Growth_Rep1 in assay [1] (setting [4]) of 84.01%. In assay [1] (setting [5]), this compound returned a Tg_72h_%Growth_Rep2 of 91.63%. The compound also came in with a Pf_120h_%Growth_Rep1 in assay [2] (setting [6]) of 145.74%. Besides, the Pf_120h_%Growth_Rep2 in assay [2] (setting [7]) was 96.88%. Also, the Pf_72h_%Growth_Rep1 in assay [3] (setting [8]) is reported as 92.41%. The compound further gave a Pf_72h_%Growth_Rep2 in assay [3] (setting [9]) of 79.15%.
As for `NC(=O)C=Cc1ccccc1` [Cinnamamide], the percent parasite growth at 2 µg/mL in assay [1] (read-out: Tg_72h_%Growth_Rep1) is 85.6%; in assay [1] (read-out: Tg_72h_%Growth_Rep2) it was 87.3%. Moreover, the activity at 2 µg/mL in assay [2] (3D7, P. falciparum, 120 h, screen at 2 μg/mL, replicate 1, read-out: Pf_120h_%Growth_Rep1) stood at 152%; in assay [2] (3D7, P. falciparum, 120 h, screen at 2 μg/mL, replicate 2, read-out: Pf_120h_%Growth_Rep2), 94.1%; in assay [3] (3D7, P. falciparum, 72 h, screen at 2 μg/mL, replicate 1, read-out: Pf_72h_%Growth_Rep1) it was 95%; in assay [3] (3D7, P. falciparum, 72 h, screen at 2 μg/mL, replicate 2, read-out: Pf_72h_%Growth_Rep2) it was 81.9%.
On to `CO[C@H]1[C@H](O)C[C@@H](O[C@@H]2C[C@H](Oc3cc4cc5c(c(O)c4c(O)c3C)C(=O)[C@@H](O[C@H]3C[C@H](O[C@H]4C[C@H](O[C@H]6C[C@@](C)(O)[C@@H](OC(=O)C(C)C)[C@H](C)O6)[C@H](O)[C@@H](C)O4)[C@H](O)[C@@H](C)O3)[C@H]([C@H](OC)C(=O)[C@@H](O)[C@@H](C)O)C5)O[C@H](C)[C@H]2OC(C)=O)O[C@@H]1C` [Chromomycin A2], for which the percent parasite growth at 2 µg/mL is 2.51% in assay [1] (T. gondii, screen at 2 μg/mL, replicate 1, read-out: Tg_72h_%Growth_Rep1) and 1.82% in assay [1] (T. gondii, screen at 2 μg/mL, replicate 2, read-out: Tg_72h_%Growth_Rep2). For the same compound, the activity at 2 µg/mL in assay [2] (3D7, 120 h, P. falciparum, 120 h, screen at 2 μg/mL, replicate 1, read-out: Pf_120h_%Growth_Rep1) came out at 3.01%; in assay [2] (3D7, 120 h, P. falciparum, 120 h, screen at 2 μg/mL, replicate 2, read-out: Pf_120h_%Growth_Rep2), 9.04%; in assay [3] (3D7, 72 h, P. falciparum, 72 h, screen at 2 μg/mL, replicate 1, read-out: Pf_72h_%Growth_Rep1), 6.05%; in assay [3] (3D7, 72 h, P. falciparum, 72 h, screen at 2 μg/mL, replicate 2, read-out: Pf_72h_%Growth_Rep2), 1.3%.
On to `C[C@H]1C(=O)N2c3ccccc3[C@@]3(O)C[C@@H]4C(=O)N[C@](C)(c5nc6ccccc6c(=O)n54)N1[C@@H]23` [Fumiquinazoline D], for which the percent parasite growth at 2 µg/mL came to 124% in assay [1] (setting [10]) and 109% in assay [1] (setting [11]). Also, the activity at 2 µg/mL is 80.2% in assay [2] (setting [12]), 101% in assay [2] (setting [13]), 76.9% in assay [3] (setting [14]) and 108% in assay [3] (setting [15]).
`CCCCCCCCCCCCCCCCCC(=O)N[C@H]1CCOC1=O` [BIA-O1501] showed a Tg_72h_%Growth_Rep1 in assay [1] (T. gondii, parasite screen at 2 μg/mL, % growth, replicate 1) of 147.08%. Also, the Tg_72h_%Growth_Rep2 in assay [1] (T. gondii, parasite screen at 2 μg/mL, % growth, replicate 2) turned out to be 83.28%. The Pf_120h_%Growth_Rep1 in assay [2] (P. falciparum 3D7, 120 h, parasite screen at 2 μg/mL, % growth, replicate 1) is 92.72%. The Pf_120h_%Growth_Rep2 in assay [2] (P. falciparum 3D7, 120 h, parasite screen at 2 μg/mL, % growth, replicate 2) is recorded as 140.11%. The Pf_72h_%Growth_Rep1 in assay [3] (P. falciparum 3D7, 72 h, parasite screen at 2 μg/mL, % growth, replicate 1) is on record as 84.33%. In assay [3] (P. falciparum 3D7, 72 h, parasite screen at 2 μg/mL, % growth, replicate 2), this compound displayed a Pf_72h_%Growth_Rep2 of 54.35%.
`CN1C(=O)c2ccccc2NC(=O)[C@]12O[C@@H]2c1ccccc1` [Cyclopenin] came in with a Tg_72h_%Growth_Rep1 in assay [1] (setting [4]) of 136.91%. In assay [1] (setting [5]), this compound displayed a Tg_72h_%Growth_Rep2 of 103.54%. This compound came in with a Pf_120h_%Growth_Rep1 in assay [2] (setting [6]) of 83.48%. In assay [2] (setting [7]), this compound showed a Pf_120h_%Growth_Rep2 of 80.30%. In assay [3] (setting [8]), this compound yielded a Pf_72h_%Growth_Rep1 of 83.83%. This compound also showed a Pf_72h_%Growth_Rep2 in assay [3] (setting [9]) of 77.00%.
In assay [1] (T. gondii, parasite screen 2 μg/mL, % growth, replicate 1), `CC(=O)O[C@@H]1CC[C@@]2(C)[C@@H](CC[C@@H](C)[C@]23Cc2c(O)cc(CO)c(C=O)c2O3)C1(C)C` [Stachybotrysin B] registered a Tg_72h_%Growth_Rep1 of 84.36%. The Tg_72h_%Growth_Rep2 in assay [1] (T. gondii, parasite screen 2 μg/mL, % growth, replicate 2) is 101.19%. Also, in assay [2] (P. falciparum, 120 h, parasite screen 2 μg/mL, % growth, replicate 1), the Pf_120h_%Growth_Rep1 came out at 161.09%. Moreover, the Pf_120h_%Growth_Rep2 in assay [2] (P. falciparum, 120 h, parasite screen 2 μg/mL, % growth, replicate 2) is recorded as 88.10%. In assay [3] (P. falciparum, 72 h, parasite screen 2 μg/mL, % growth, replicate 1), this compound registered a Pf_72h_%Growth_Rep1 of 81.92%. Further, in assay [3] (P. falciparum, 72 h, parasite screen 2 μg/mL, % growth, replicate 2), the Pf_72h_%Growth_Rep2 was determined as 82.33%.
Take `COc1c(O)c(C)c(C)c(O)c1OC` [BIA-H1651]: in assay [1] (T. gondii RH, library screen at 2 μg/mL, % growth, replicate 1), the Tg_72h_%Growth_Rep1 came to 138.57%. The compound further came in with a Tg_72h_%Growth_Rep2 in assay [1] (T. gondii RH, library screen at 2 μg/mL, % growth, replicate 2) of 100.12%. In addition, the Pf_120h_%Growth_Rep1 in assay [2] (P. falciparum 3D7, 120 h, library screen at 2 μg/mL, % growth, replicate 1) stood at 17.29%. In assay [2] (P. falciparum 3D7, 120 h, library screen at 2 μg/mL, % growth, replicate 2), the Pf_120h_%Growth_Rep2 was 12.27%. This compound also showed a Pf_72h_%Growth_Rep1 in assay [3] (P. falciparum 3D7, 72 h, library screen at 2 μg/mL, % growth, replicate 1) of 6.09%. Besides, in assay [3] (P. falciparum 3D7, 72 h, library screen at 2 μg/mL, % growth, replicate 2), the Pf_72h_%Growth_Rep2 is reported as 2.27%.
In the case of `CC(=O)OCC1=C[C@@H]2OC(=O)C3=CO[C@@H](O[C@@H]4O[C@H](CO)[C@@H](O)[C@H](O)[C@H]4O)[C@H]1[C@@H]32` [Asperuloside], the percent parasite growth at 2 µg/mL in assay [1] (setting [10]) is 123%; in assay [1] (setting [11]), 97.1%. Besides, the activity at 2 µg/mL is 94.8% in assay [2] (setting [12]), 94.6% in assay [2] (setting [13]), 86.2% in assay [3] (setting [14]) and 89.3% in assay [3] (setting [15]).
